Experimental data as given in PubChem BioAssay AID330 (DTP/NCI, 2004).
Several values for one entry are separate records, joined by “and”; a condition that tells them apart may be missing. Equal values may be shown once. Inconclusive results and toxic doses are left out. Rule for the calls: active = survival T/C of 150% or more; inactive = T/C below 125% in these data.

Tested on: P388 leukemia ip, CD2F1 mice, survival T/C
Experiment: NCI In Vivo Anticancer Drug Screen. Data for tumor model P388 Leukemia (intraperitoneal) in CD2F1 (CDF1) mice
Settings: endpoint: median survival time, higher = longer survival
Summary of the method: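 Mice carrying the transplanted tumor received test compound or vehicle. Survival was recorded in each group, and the value is the treated-group measurement divided by that of the vehicle-treated control group.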

[1] = dose: 100.0 mg/kg/injection, schedule: Q04DX003 (ip), vehicle: saline with Tween-80
[2] = dose: 200.0 mg/kg/injection, schedule: Q04DX003 (ip), vehicle: saline with Tween-80
[3] = dose: 25.0 mg/kg/injection, schedule: Q01DX009 (ip), vehicle: saline with Tween-80
[4] = dose: 50.0 mg/kg/injection, schedule: Q01DX009 (ip), vehicle: saline with Tween-80
[5] = dose: 50.0 mg/kg/injection, schedule: Q01DX005 (ip), vehicle: saline with Tween-80
[6] = dose: 100.0 mg/kg/injection, schedule: Q01DX005 (ip), vehicle: saline with Tween-80
[7] = dose: 200.0 mg/kg/injection, schedule: Q01DX005 (ip), vehicle: saline with Tween-80

Measured: T/C

CCC1C(=O)OCCOCCOCCOCCOCCOC1=O
inactive: dose: 50.0 mg/kg/injection, schedule: Q01DX009 (ip), vehicle: Klucel (hydroxypropylcellulose) (HPC) 100 % of control | dose: 100.0 mg/kg/injection, schedule: Q01DX009 (ip), vehicle: Klucel (hydroxypropylcellulose) (HPC) 107 % of control | dose: 200.0 mg/kg/injection, schedule: Q01DX009 (ip), vehicle: Klucel (hydroxypropylcellulose) (HPC) 99 % of control

C#C/C=C/CC1OC(CC)/C=C\C=C/CC1Cl (stereo unspecified)
inactive: dose: 2.0 mg/kg/injection, schedule: Q01DX009 (ip), vehicle: Klucel (hydroxypropylcellulose) (HPC) 100 % of control | dose: 4.0 mg/kg/injection, schedule: Q01DX009 (ip), vehicle: Klucel (hydroxypropylcellulose) (HPC) 109 % of control | dose: 8.0 mg/kg/injection, schedule: Q01DX009 (ip), vehicle: Klucel (hydroxypropylcellulose) (HPC) 96 % of control | dose: 16.0 mg/kg/injection, schedule: Q01DX009 (ip), vehicle: Klucel (hydroxypropylcellulose) (HPC) 104 % of control

Cc1ccc(N2CCN(CCCC3(c4ccccc4)OCCO3)CC2C)cc1Cl (stereo unspecified)
inactive: dose: 50.0 mg/kg/injection, schedule: Q04DX003 (ip), vehicle: saline 106 % of control and 97 % of control | [1] 107 % of control | dose: 100.0 mg/kg/injection, schedule: Q04DX003 (ip), vehicle: saline 100 % of control and 95 % of control | [2] 117 % of control | dose: 200.0 mg/kg/injection, schedule: Q04DX003 (ip), vehicle: saline 107 % of control and 97 % of control | dose: 400.0 mg/kg/injection, schedule: Q04DX003 (ip), vehicle: saline 107 % of control and 97 % of control

CCOC(=O)C1=C(Nc2ccc([N+](=O)[O-])cc2)CCCC1
inactive: dose: 1.56 mg/kg/injection, schedule: Q01DX009 (ip), vehicle: saline 93 % of control | dose: 3.12 mg/kg/injection, schedule: Q01DX009 (ip), vehicle: saline 95 % of control | dose: 6.25 mg/kg/injection, schedule: Q01DX009 (ip), vehicle: saline 95 % of control

O=C(Oc1ccc[nH]c1=O)c1ccc([N+](=O)[O-])cc1
inactive: dose: 12.5 mg/kg/injection, schedule: Q01DX009 (ip), vehicle: saline 106 % of control and 110 % of control | dose: 25.0 mg/kg/injection, schedule: Q01DX009 (ip), vehicle: saline 101 % of control and 110 % of control | dose: 50.0 mg/kg/injection, schedule: Q01DX009 (ip), vehicle: saline 102 % of control and 103 % of control and 118 % of control | dose: 100.0 mg/kg/injection, schedule: Q01DX009 (ip), vehicle: saline 105 % of control and 118 % of control | dose: 200.0 mg/kg/injection, schedule: Q01DX009 (ip), vehicle: saline 100 % of control and 110 % of control and 91 % of control | dose: 400.0 mg/kg/injection, schedule: Q01DX009 (ip), vehicle: saline 101 % of control and 110 % of control

C[CH2][Sn]([CH2]C)([N](c1ccccn1)c1ccccn1)[N](c1ccccn1)c1ccccn1
inactive: dose: 1.56 mg/kg/injection, schedule: Q01DX005 (ip), vehicle: Klucel (hydroxypropylcellulose) (HPC) 123 % of control | dose: 3.12 mg/kg/injection, schedule: Q01DX005 (ip), vehicle: Klucel (hydroxypropylcellulose) (HPC) 119 % of control | dose: 6.25 mg/kg/injection, schedule: Q01DX005 (ip), vehicle: Klucel (hydroxypropylcellulose) (HPC) 116 % of control and 123 % of control

O=C(O)CCCc1cc(I)c(N(CCCl)CCCl)c(I)c1
inactive: dose: 12.5 mg/kg/injection, schedule: Q01DX009 (ip), vehicle: saline with Tween-80 121 % of control | [3] 107 % of control | [4] 121 % of control

CN(C)CCCN1C[C@H]2CC[C@@](C)(C1)C2(C)C
inactive: [5] 105 % of control | [6] 107 % of control | [7] 105 % of control

C#CC1(O)CC2c3ccc(OC)cc3CCC2(C)C1 (stereo unspecified)
inactive: dose: 6.25 mg/kg/injection, schedule: Q01DX009 (ip), vehicle: Klucel (hydroxypropylcellulose) (HPC) 117 % of control | dose: 12.5 mg/kg/injection, schedule: Q01DX009 (ip), vehicle: Klucel (hydroxypropylcellulose) (HPC) 105 % of control | dose: 25.0 mg/kg/injection, schedule: Q01DX009 (ip), vehicle: Klucel (hydroxypropylcellulose) (HPC) 112 % of control

O=[N+]([O-])c1ccc(/C=C/C=C/c2ccc(Cl)c(S(=O)(=O)F)c2)c(Cl)c1
inactive: dose: 100.0 mg/kg/injection, schedule: Q01DX009 (ip), vehicle: saline sonified 95 % of control | dose: 200.0 mg/kg/injection, schedule: Q01DX009 (ip), vehicle: saline sonified 95 % of control | dose: 400.0 mg/kg/injection, schedule: Q01DX009 (ip), vehicle: saline sonified 91 % of control

CCN(CC)Cc1c(C)[nH]c2c(ccc3cc4ccccc4cc32)c1=O
inactive: dose: 100.0 mg/kg/injection, schedule: Q04DX003 (ip), vehicle: Klucel (hydroxypropylcellulose) (HPC) 94 % of control | dose: 200.0 mg/kg/injection, schedule: Q04DX003 (ip), vehicle: Klucel (hydroxypropylcellulose) (HPC) 97 % of control | dose: 400.0 mg/kg/injection, schedule: Q04DX003 (ip), vehicle: Klucel (hydroxypropylcellulose) (HPC) 96 % of control

O=C1NN2CCCN=C2c2ccncc21
inactive: dose: 60.0 mg/kg/injection, schedule: Q01DX005 (ip), vehicle: saline 98 % of control | dose: 120.0 mg/kg/injection, schedule: Q01DX005 (ip), vehicle: saline 97 % of control | dose: 240.0 mg/kg/injection, schedule: Q01DX005 (ip), vehicle: saline 93 % of control

C=CCNC(=S)N/N=C(/c1ccccn1)C(C)C
inactive: [5] 103 % of control | [6] 109 % of control

COc1ccc2c(O)c(S(=O)(=O)c3ccc(C)cc3)c(=O)oc2c1
inactive: dose: 60.0 mg/kg/injection, schedule: Q01DX005 (ip), vehicle: saline with Tween-80 92 % of control | dose: 120.0 mg/kg/injection, schedule: Q01DX005 (ip), vehicle: saline with Tween-80 104 % of control | dose: 240.0 mg/kg/injection, schedule: Q01DX005 (ip), vehicle: saline with Tween-80 115 % of control

COc1cc(CCN(C)C)c(C2C(=O)c3ccc4c(c3C2=O)OCO4)cc1OC (stereo unspecified)
inactive: dose: 0.15 mg/kg/injection, schedule: Q01DX005 (ip), vehicle: Klucel (hydroxypropylcellulose) (HPC) 103 % of control | dose: 0.3 mg/kg/injection, schedule: Q01DX005 (ip), vehicle: Klucel (hydroxypropylcellulose) (HPC) 104 % of control | dose: 0.6 mg/kg/injection, schedule: Q01DX005 (ip), vehicle: Klucel (hydroxypropylcellulose) (HPC) 100 % of control | dose: 1.2 mg/kg/injection, schedule: Q01DX005 (ip), vehicle: Klucel (hydroxypropylcellulose) (HPC) 99 % of control

Cc1ccc(C(C)(N=[N+]=[N-])c2ccccc2)cc1C (stereo unspecified)
inactive: [3] 91 % of control | [4] 108 % of control | dose: 100.0 mg/kg/injection, schedule: Q01DX009 (ip), vehicle: saline with Tween-80 109 % of control

Nc1nc(N)c2c(ccc3c2ccn3Cc2cccc([N+](=O)[O-])c2)n1
inactive: dose: 1.56 mg/kg/injection, schedule: Q01DX005 (ip), vehicle: saline with Tween-80 100 % of control and 119 % of control | dose: 3.12 mg/kg/injection, schedule: Q01DX005 (ip), vehicle: saline with Tween-80 110 % of control

CCCNC(=O)N1C2C3CCC(C)(OC3(C)C)C21 (stereo unspecified)
inactive: dose: 50.0 mg/kg/injection, schedule: Q01DX005 (ip), vehicle: saline 106 % of control | dose: 100.0 mg/kg/injection, schedule: Q01DX005 (ip), vehicle: saline 100 % of control | dose: 200.0 mg/kg/injection, schedule: Q01DX005 (ip), vehicle: saline 98 % of control

C[n+]1c(-c2ccc(/C=N/NC(=O)c3ccc(C(=O)N/N=C/c4ccc(-c5cn6ccccc6[n+]5C)cc4)c(O)c3O)cc2)cn2ccccc21
inactive: [5] 107 % of control | [6] 96 % of control

O=[N+]([O-])c1ccc(N=NN2CCOC2)cc1
inactive: [5] 99 % of control | [6] 103 % of control | [7] 105 % of control

Clc1cccc(-c2nc3ccccc3c3ccccc23)c1
inactive: [1] 100 % of control | [2] 90 % of control | dose: 400.0 mg/kg/injection, schedule: Q04DX003 (ip), vehicle: saline with Tween-80 90 % of control

C1CC[N-]CC1.CC(=O)Nc1[c-]cccc1.CC(=O)O.[Pd+2]
inactive: dose: 25.0 mg/kg/injection, schedule: Q01DX005 (ip), vehicle: saline with Tween-80 112 % of control and 95 % of control | [5] 107 % of control and 114 % of control and 119 % of control | [6] 111 % of control

Cc1ccc(S(=O)(=O)NCCN(CCNS(=O)(=O)c2ccc(C)cc2)S(=O)(=O)c2ccc(C)cc2)cc1
inactive: dose: 100.0 mg/kg/injection, schedule: Q01DX001 (ip), vehicle: saline with Tween-80 86 % of control | dose: 200.0 mg/kg/injection, schedule: Q01DX001 (ip), vehicle: saline with Tween-80 86 % of control | dose: 400.0 mg/kg/injection, schedule: Q01DX001 (ip), vehicle: saline with Tween-80 88 % of control

C=C(C)C1CC=C(C)C(OCCN(CC)CC)C1 (stereo unspecified)
inactive: dose: 50.0 mg/kg/injection, schedule: Q01DX005 (ip), vehicle: Klucel (hydroxypropylcellulose) (HPC) 100 % of control | dose: 100.0 mg/kg/injection, schedule: Q01DX005 (ip), vehicle: Klucel (hydroxypropylcellulose) (HPC) 103 % of control
